Columns and labels:
[1] = target: T1, recombinant human Meningioma Expressed Antigen 5 (MGEA5), also referred to as O-GlcNAcase (OGA) (Homo sapiens, UniProt O60502); test: OGA biochemical assay: inhibition of hydrolysis of fluorescein mono-ß-D-N-Acetyl-Glucosamine (FM-GlcNAc), fluorescence readout; conditions: FM-GlcNAc substrate; for Emax: read-out: Enzymatic Emax (%); for IC50: read-out: Enzymatic hOGA, pIC50 (converted)
T1 construct: Full length OGA enzyme was purchased at OnGene (cat #TP322411); purchased OnGene (so in the source)
T1 sequence (O60502 1-916): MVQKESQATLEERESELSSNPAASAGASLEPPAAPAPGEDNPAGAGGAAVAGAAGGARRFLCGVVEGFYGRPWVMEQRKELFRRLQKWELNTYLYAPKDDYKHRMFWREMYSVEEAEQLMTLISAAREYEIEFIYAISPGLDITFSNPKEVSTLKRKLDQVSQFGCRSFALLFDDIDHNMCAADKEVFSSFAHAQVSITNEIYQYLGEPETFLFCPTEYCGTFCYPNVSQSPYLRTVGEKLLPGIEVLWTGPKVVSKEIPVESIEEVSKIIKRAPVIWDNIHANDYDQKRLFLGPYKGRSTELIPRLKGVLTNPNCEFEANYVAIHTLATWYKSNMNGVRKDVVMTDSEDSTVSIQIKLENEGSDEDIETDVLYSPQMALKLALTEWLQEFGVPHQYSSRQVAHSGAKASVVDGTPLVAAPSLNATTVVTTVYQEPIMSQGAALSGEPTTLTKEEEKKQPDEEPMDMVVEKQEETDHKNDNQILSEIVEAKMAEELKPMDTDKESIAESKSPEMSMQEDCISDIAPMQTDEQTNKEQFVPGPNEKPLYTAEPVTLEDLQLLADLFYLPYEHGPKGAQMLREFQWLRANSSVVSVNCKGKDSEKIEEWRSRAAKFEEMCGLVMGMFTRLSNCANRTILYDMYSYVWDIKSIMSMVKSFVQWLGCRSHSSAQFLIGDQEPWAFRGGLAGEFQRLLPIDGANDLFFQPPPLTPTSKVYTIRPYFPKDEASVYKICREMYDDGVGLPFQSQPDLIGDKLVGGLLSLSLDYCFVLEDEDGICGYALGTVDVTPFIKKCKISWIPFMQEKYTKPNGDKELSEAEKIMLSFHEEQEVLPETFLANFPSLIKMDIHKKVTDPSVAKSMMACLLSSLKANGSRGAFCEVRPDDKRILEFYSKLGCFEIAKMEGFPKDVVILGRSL
Summary of the method: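 Full-length recombinant human OGA (2 nM) was pre-incubated with compound for 60 min, then reacted with 100 uM FM-GlcNAc for 6 h at room temperature in 200 mM citrate/phosphate pH 7.2 with 0.005% Tween-20. Reactions were stopped with pH 11.0 carbonate and fluorescein read at 485/538 nm. IC50 and Hill coefficient came from curve fitting.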

[2] = tested on: OGA in HEK293 cells inducible for P301L mutant human Tau (isoform 2N4R); test: OGA cellular assay: immunocytochemical detection of O-GlcNAcylated proteins (CTD110.6 antibody); format: cell-based; conditions: Homo sapiens, HEK293, 6 h, 6 hours incubation; for Emax: maximum = Thiamet G 200 uM; for EC50: read-out: Cellular hOGA, pEC50 (converted)
Procedure: HEK293 cells inducible for P301L mutant human Tau (isoform 2N4R) were established at Janssen. Thiamet-G was used for both plate validation (high control) and as reference compound (reference EC50 assay validation). OGA inhibition is evaluated through the immunocytochemical (ICC) detection of O-GlcNAcylated proteins by the use of a monoclonal antibody (CTD110.6; Cell Signaling, #9875) detecting 0-GlcNAcylated residues as previously described (Dorfmueller et al. 2010 Chemistry & biology, 17:1250). Inhibition of OGA will result in an increase of O-GlcNAcylated protein levels resulting in an increased signal in the experiment. Cell nuclei are stained with Hoechst to give a cell culture quality control and a rough estimate of immediate compounds toxicity, if any. ICC pictures are imaged with a Perkin Elmer Opera Phenix plate microscope and quantified with the provided software Perkin Elmer Harmony 4.1.
Cells were propagated in DMEM high Glucose (Sigma, #D5796) following standard procedures. 2 days before the cell assay cells are split, counted and seeded in Poly-D-Lysine (PDL) coated 96-wells (Greiner, #655946) plate at a cell density of 12,000 cells per cm^2 (4,000 cells per well) in 100p of Assay Medium (Low Glucose medium is used to reduce basal levels of GlcNAcylation) (Park et al. 2014 The Journal of biological chemistry 289:13519). At the day of compound test medium from assay plates was removed and replenished with 90 µl of fresh Assay Medium. 10p of compounds at a 10 fold final concentration were added to the wells. Plates were centrifuged shortly before incubation in the cell incubator for 6 hours. DMSO concentration was set to 0.2%. Medium is discarded by applying vacuum. For staining of cells medium was removed and cells washed once with 100 μl D-PBS (Sigma, #D8537). From next step onwards unless other stated assay volume was always 50p and incubation was performed without agitation and at room temperature. Cells were fixed in 50 μl of a 4% paraformaldehyde (PFA, Alpha aesar, #043368) PBS solution for 15 minutes at room temperature. […] Before analysis samples were washed 2 times manually for 5 minutes in ICC base buffer.
Imaging is performed using Perkin Elmer Phenix Opera using a water 20× objective and recording 9 fields per well. Intensity readout at 488 nm is used as a measure of O-GlcNAcylation level of total proteins in wells. To assess potential toxicity of compounds nuclei were counted using the Hoechst staining. IC50-values are calculated using parametric non-linear regression model fitting. As a maximum inhibition Thiamet G at a 200 uM concentration is present on each plate. In addition, a concentration response of Thiamet G is calculated on each plate.

## Cc1ccnc(OC(F)F)c1Nc1nccc2c1ccn2CC1CCO1 (stereo not shown) [Compound 119]
[1]
  Enzymatic hOGA; pIC50: 8
  Emax: 105%
[2]
  Emax: 80.3%
  EC50: 102 nM

## Cn1cnc(-n2ccc3c(Nc4c(Cl)cccc4Cl)nccc32)c1 [Compound 167]
[1]
  Emax: 102%
  IC50: 17 nM
[2]
  Emax: 81.9%
  EC50: ~224 nM

## Cc1cc(Cn2ccc3c(Nc4c(Cl)cc(F)cc4Cl)nccc32)no1 [Compound 158]
[1]
  Enzymatic hOGA; pIC50: 8.58
  Emax: 101%
[2]
  Emax: 71%
  EC50: 63.1 nM

## Cc1ccnc(C)c1Nc1nccc2c1ccn2CC(F)(F)C(C)C [Compound 202]
[1]
  Emax: 101%
  IC50: 3.09 nM
[2]
  Emax: 88.1%
  EC50: 3.63 nM

## Clc1cccc(Cl)c1Nc1nccc2c1ccn2CCC1CC1 [Compound 70]
[1]
  Emax: 103%
  IC50: 1.7 nM
[2]
  Emax: 82%
  EC50: 37.2 nM

## CCC(F)(F)Cn1ccc2c(Nc3c(Cl)cccc3Cl)nccc21 [Compound 113]
[1]
  Enzymatic hOGA; pIC50: 8.9
  Emax: 106%
[2]
  Emax: 93%
  EC50: 7.94 nM

## Cc1cc(C(F)(F)F)nc(C)c1Nc1nccc2c1ccn2CC(C)(F)F [Compound 131]
[1]
  Enzymatic hOGA; pIC50: 8.36
  Emax: 102%
[2]
  Emax: 78.7%
  EC50: 15.5 nM

## CCCCn1ccc2c(Nc3c(C)cc(-c4cnn(C)c4)cc3C)nccc21 [Compound 54]
[1]
  Emax: 104%
  IC50: 2.04 nM
[2]
  Emax: 82%
  EC50: 20.9 nM

## Cc1cncc(C)c1Nc1nccc2c1ccn2CC1CC1 [Compound 41]
[1]
  Emax: 101%
  IC50: 24.5 nM
[2]
  Emax: 71%
  EC50: 95.5 nM

## Cc1ccnc(C(F)(F)F)c1Nc1nccc2c1ccn2CCC1CC1 [Compound 197]
[1]
  Emax: 104%
  IC50: 4.9 nM
[2]
  Emax: 86.3%
  EC50: 56.2 nM

## CCCCn1ccc2c(Nc3c(C)cc(F)cc3C)nccc21 [Compound 73]
[1]
  Emax: 101%
  IC50: 2.69 nM
[2]
  Emax: 93%
  EC50: 53.7 nM

## CCCCn1ccc2c(Nc3c(C)cc(C)c(Br)c3C)nccc21 [Compound 66]
[1]
  Emax: 103%
  IC50: 3.8 nM
[2]
  Emax: 84%
  EC50: 186 nM

## Cc1cc(F)cc(Cl)c1Nc1nccc2c1ccn2CC(C)(F)F [Compound 151]
[1]
  Enzymatic hOGA; pIC50: 8.61
  Emax: 100%
[2]
  Emax: 102%
  EC50: 10.2 nM

## CCCCn1ccc2c(Nc3c(C)cncc3C)nccc21 [Compound 52]
[1]
  Emax: 103%
  IC50: 9.55 nM
[2]
  Emax: 72%
  EC50: 26.9 nM

## Fc1cc(Cl)c(Nc2nccc3c2ccn3CC2CCCO2)c(Cl)c1 (stereo not shown) [Compound 136]
[1]
  Enzymatic hOGA; pIC50: 7.64
  Emax: 101%
[2]
  Emax: 74.9%
  EC50: 240 nM

## Cc1cc2cnn(C)c2c(C)c1Nc1nccc2c1ccn2CC(F)(F)C(C)C [Compound 189]
[1]
  Emax: 100%
  IC50: 1.05 nM
[2]
  Emax: 101%
  EC50: 3.16 nM

## Cc1cncc(C)c1Nc1nccc2c1ccn2CC1CC1(F)F (stereo not shown) [Compound 1]
[1]
  Emax: 102%
  IC50: 151 nM
[2]
  Emax: 56%
  EC50: 708 nM

## Cc1ncnc(C(C)C)c1Nc1nccc2c1ccn2CCC1CC1 [Compound 193]
[1]
  Emax: 102%
  IC50: 6.31 nM
[2]
  Emax: 89.7%
  EC50: 112 nM

## Cc1ccnc(C(C)C)c1Nc1nccc2c1ccn2CC1CCCO1 (stereo not shown) [Compound 138]
[1]
  Enzymatic hOGA; pIC50: 8.07
  Emax: 103%
[2]
  Emax: 66.8%
  EC50: 74.1 nM

## CC[C@H](O)Cn1ccc2c(Nc3c(C)cc(C#N)cc3Cl)nccc21 [Compound 123b]
[1]
  Enzymatic hOGA; pIC50: 7.53
  Emax: 99.2%
[2]
  Emax: 71.1%
  EC50: 100 nM

## CCCCn1ccc2c(Nc3c(C)cc(NC(C)=O)cc3C)nccc21 [Compound 62]
[1]
  Emax: 101%
  IC50: 5.37 nM
[2]
  Emax: 95%
  EC50: 9.33 nM

## Cc1ccnc(C(F)F)c1Nc1nccc2c1ccn2CC(C)(F)F [Compound 134]
[1]
  Enzymatic hOGA; pIC50: 8.28
  Emax: 99.9%
[2]
  Emax: 77.5%
  EC50: 81.3 nM

## Cc1cc(C)c(Nc2nccc3c2ccn3CC(F)(F)C(C)C)c(OC(F)F)n1 [Compound 179]
[1]
  Emax: 102%
  IC50: 2.04 nM
[2]
  Emax: 80.9%
  EC50: 20.4 nM

## CCCCn1ccc2c(Nc3c(C)cc4c(c3C)CC(=O)N(C)C4)nccc21 [Compound 88]
[1]
  Emax: 103%
  IC50: 4.07 nM
[2]
  Emax: 95%
  EC50: 10.7 nM

## CCCCn1ccc2c(Nc3c(C)ccc4[nH]nnc34)nccc21 [Compound 12]
[1]
  Enzymatic hOGA; pIC50: 7.31
  Emax: 99%
[2]
  Emax: 64%
  EC50: 562 nM

## Cc1cc(C(F)(F)F)nc(C)c1Nc1nccc2c1ccn2CC(F)(F)C(C)C [Compound 185]
[1]
  Emax: 102%
  IC50: 2.24 nM
[2]
  Emax: 99.8%
  EC50: 9.77 nM

## CCCCn1cc(F)c2c(Nc3c(C)cncc3C)nccc21 [Compound 34]
[1]
  Emax: 99%
  IC50: 178 nM
[2]
  Emax: 36%
  EC50: > 1000 nM

## Cc1cc(F)cc(F)c1Nc1nccc2c1ccn2CC(C)(F)F [Compound 155]
[1]
  Enzymatic hOGA; pIC50: 8
  Emax: 101%
[2]
  Emax: 73.3%
  EC50: 50.1 nM

## CC[C@H](O)Cn1ccc2c(Nc3c(C)cc(F)cc3C)nccc21 [Compound 145b]
[1]
  Enzymatic hOGA; pIC50: 8.46
  Emax: 102%
[2]
  Emax: 85.7%
  EC50: 26.9 nM

## FCCCCn1ccc2c(Nc3c(Cl)cccc3Cl)nccc21 [Compound 7]
[1]
  Enzymatic hOGA; pIC50: 7.98
  Emax: 103%
[2]
  Emax: 84%
  EC50: 214 nM

## N#Cc1ccc(-n2ccc3c(Nc4c(Cl)cccc4Cl)nccc32)nc1 [Compound 166]
[1]
  Emax: 101%
  IC50: 47.9 nM
[2]
  Emax: 44.1%
  EC50: 1000 nM

## Cc1ccnc(C)c1Nc1nccc2c1ccn2CCC(C)(F)F [Compound 90]
[1]
  Enzymatic hOGA; pIC50: 7.31
  Emax: 102%
[2]
  Emax: 62%
  EC50: 363 nM

## CCCCn1c(F)cc2c(Nc3c(C)cncc3C)nccc21 [Compound 31]
[1]
  Emax: 99%
  IC50: 302 nM
[2]
  Emax: 27%
  EC50: > 1000 nM

## CCCCn1ccc2c(Nc3c(Cl)cccc3Cl)ncc(F)c21 [Compound 74]
[1]
  Emax: 100%
  IC50: 28.8 nM
[2]
  Emax: 40%
  EC50: > 1000 nM

— patent publication US20210277003A1, “OGA INHIBITOR COMPOUNDS” (Janssen Pharmaceutica NV, priority 2018, published 2021)
